Patent US20160002247A1, “8-SUBSTITUTED IMIDAZOPYRIMIDINONE DERIVATIVE HAVING AUTOTAXIN INHIBITORY ACTIVITY” (THE UNIVERSITY OF TOKYO, priority 2013, published 2016)
Where two headings read alike, the source gives them in different places.

Target: T1, Human autotaxin enzyme (Homo sapiens, UniProt Q13822)
T1 construct: purchased R&D System
Test: Evaluation of autotaxin inhibitor, Method B (Test Example 2): TG-mTMP fluorescence
Format: biochemical
Conditions: Assay Method B (Test Example 2), human autotaxin
Procedure: (Method B) Evaluation of Autotaxin Inhibitor
Solution A containing 25 mM Tris-HCl buffer (pH7.5), 100 mM NaCl, 5 mM MgCl2 and 0.1% BSA was prepared. Human autotaxin enzyme (purchased from R&D System) was diluted with Solution A, and 5 μL of which was added to a solution of test compound in DMSO. Furthermore, 5 μl of 0.5 μM TG-mTMP in Solution A was added and allowed to react at room temperature for 2 hours. 5 μl of 150 mM EDTA in Solution A was added to quench the reaction, and the fluorescent dye TokyoGreen, which was produced by the reaction, was detected. The fluorescence was detected using ViewLux (PerkinElmer, Inc.) with an excitation wavelength of 480 nm and a fluorescence wavelength of 540 nm.

[1] = read-out: Inhibitory Activity (autotaxin enzyme inhibitory activity, IC50 class)

Row | Structure (SMILES) | IC50 [1] | IC50 (Inhibitory Activity (autotaxin enzyme inhibitory activity, IC50 class))
1 | CCCCCn1c(C)c(NC(C)=O)c(=O)n2cc(-c3ccc(Cl)cc3)nc12 [Compound 199] | 10 to 100 nM | –
2 | CCCCCn1c(C)c(CCC(=O)OCC)c(=O)n2cc(-c3ccc(Cl)cc3)nc12 [Compound 200] | < 10 nM | –
3 | CCCCCOC(=O)CCc1c(C)n(CCCCC)c2nc(-c3ccc(Cl)cc3)cn2c1=O [Compound 201] | < 10 nM | –
4 | CCCCCn1c(C)c(Cc2ccccc2)c(=O)n2cc(-c3ccc(Cl)cc3)nc12 [Compound 203] | 10 to 100 nM | –
5 | CCCCCn1c(C)c(CCCC)c(=O)n2cc(-c3ccc(Cl)cc3)nc12 [Compound 204] | 100 to 1000 nM | –
6 | CCCCCn1c(C)c(CC)c(=O)n2cc(-c3ccc(Cl)cc3)nc12 [Compound 205] | 10 to 100 nM | –
7 | CCCCCn1c(C)c(F)c(=O)n2cc(-c3ccc(Cl)cc3)nc12 [Compound 206] | 10 to 100 nM | –
8 | CCCCCn1c(C)c(C)c(=O)n2cc(-c3ccc(Cl)cc3)nc12 [Compound 208] | 10 to 100 nM | –
9 | CCCCCn1c(C)c(NC(C)=O)c(=O)n2cc(-c3cccc(Cl)c3)nc12 [Compound 209] | 100 to 1000 nM | –
10 | CCCCCn1c(C)c(CCC(=O)OCC)c(=O)n2cc(-c3cccc(Cl)c3)nc12 [Compound 210] | 100 to 1000 nM | –
11 | CCCCCn1c(C)c(Cc2ccccc2)c(=O)n2cc(-c3cccc(Cl)c3)nc12 [Compound 211] | > 1000 nM | –
12 | CCCCCn1c(C)c(F)c(=O)n2cc(-c3cccc(Cl)c3)nc12 [Compound 212] | > 1000 nM | –
13 | CCCCCn1c(C)c(CCO)c(=O)n2cc(-c3cccc(Cl)c3)nc12 [Compound 213] | 100 to 1000 nM | –
14 | CCCCCn1c(C)c(CCOCC)c(=O)n2cc(-c3ccc(Cl)cc3)nc12 [Compound 214] | < 10 nM | –
15 | CCCCCOC(=O)Cc1c(C)n(CCCCC)c2nc(-c3ccc(Cl)cc3)cn2c1=O [Compound 215] | < 10 nM | –
16 | CCCCCn1c(C)c(CCOCC)c(=O)n2cc(-c3ccc(Cl)cc3)nc12 [Compound 216] | > 1000 nM | –
17 | CCCCCOC(=O)CCc1c(C)n(CCCCC)c2nc(-c3ccc(Cl)cc3)cn2c1=O [Compound 217] | 100 to 1000 nM | –
18 | CCCCCn1c(NCC(=O)O)cc(=O)n2cc(-c3ccc(Cl)cc3)nc12 [Compound 218] | 10 to 100 nM | –
19 | CCCCCn1c(NCCO)cc(=O)n2cc(-c3ccc(Cl)cc3)nc12 [Compound 222] | 10 to 100 nM | –
20 | CCCCCn1c(N2CCN(CCc3ccccc3)CC2)cc(=O)n2cc(-c3ccc(Cl)cc3)nc12 [Compound 223] | 10 to 100 nM | –

Row | Structure (SMILES) | IC50 [1] | IC50 (Inhibitory Activity (autotaxin enzyme inhibitory activity, IC50 class))
21 | CCCCCn1c(NC2CCCC2)cc(=O)n2cc(-c3ccc(Cl)cc3)nc12 [Compound 224] | 10 to 100 nM | –
22 | CCCCCn1c(N2CCC(C(=O)O)CC2)cc(=O)n2cc(-c3ccc(Cl)cc3)nc12 [Compound 225] | < 10 nM | –
23 | CCCCCn1c(NCc2ccc(OC)cc2)cc(=O)n2cc(-c3ccc(Cl)cc3)nc12 [Compound 226] | 10 to 100 nM | –
24 | CCCCCn1c(NCCN2CCN(C)CC2)cc(=O)n2cc(-c3ccc(Cl)cc3)nc12 [Compound 227] | < 10 nM | –
25 | CCCCCn1c(NCc2cccn2C)cc(=O)n2cc(-c3ccc(Cl)cc3)nc12 [Compound 228] | 10 to 100 nM | –
26 | CCCCCn1c(NCc2ccccn2)cc(=O)n2cc(-c3ccc(Cl)cc3)nc12 [Compound 229] | 10 to 100 nM | –
27 | CCCCCn1c(N(C)CCC)cc(=O)n2cc(-c3ccc(Cl)cc3)nc12 [Compound 230] | < 10 nM | –
28 | CCCCCn1c(N(C)C)cc(=O)n2cc(-c3ccc(Cl)cc3)nc12 [Compound 231] | < 10 nM | –
29 | CCCCCn1c(N2CCN(C)CC2)cc(=O)n2cc(-c3ccc(Cl)cc3)nc12 [Compound 232] | < 10 nM | –
30 | CCCCCn1c(NCc2nccs2)cc(=O)n2cc(-c3ccc(Cl)cc3)nc12 [Compound 233] | 10 to 100 nM | –
31 | CCCCCn1c(N2CCOCC2)cc(=O)n2cc(-c3ccc(Cl)cc3)nc12 [Compound 234] | < 10 nM | –
32 | CCCCCn1c(NCCN(C)C)cc(=O)n2cc(-c3ccc(Cl)cc3)nc12 [Compound 235] | 10 to 100 nM | –
33 | CCCCCn1c(NCCNC(C)=O)cc(=O)n2cc(-c3ccc(Cl)cc3)nc12 [Compound 236] | 10 to 100 nM | –
34 | CCCCCn1c(NCc2ccc(N(C)C)cc2)cc(=O)n2cc(-c3ccc(Cl)cc3)nc12 [Compound 237] | 10 to 100 nM | –
35 | CCCCCn1c(NCCN2CCOCC2)cc(=O)n2cc(-c3ccc(Cl)cc3)nc12 [Compound 238] | < 10 nM | –
36 | CCCCCn1c(N2C[C@H]3CC[C@@H](C2)O3)cc(=O)n2cc(-c3ccc(Cl)cc3)nc12 [Compound 239] | 10 to 100 nM | –
37 | CCCCCn1c(N2CCN(CC(=O)N(C)C)CC2)cc(=O)n2cc(-c3ccc(Cl)cc3)nc12 [Compound 240] | < 10 nM | –
38 | CCCCCn1c(NCC(=O)N2CCN(C)CC2)cc(=O)n2cc(-c3ccc(Cl)cc3)nc12 [Compound 241] | < 10 nM | –
39 | CCCCCn1c(N2CCN(CCCOC)CC2)cc(=O)n2cc(-c3ccc(Cl)cc3)nc12 [Compound 243] | < 10 nM | –
40 | CCCCCn1c(N2CCC(N3CCOCC3)CC2)cc(=O)n2cc(-c3ccc(Cl)cc3)nc12 [Compound 244] | 10 to 100 nM | –

Row | Structure (SMILES) | IC50 [1] | IC50 (Inhibitory Activity (autotaxin enzyme inhibitory activity, IC50 class))
41 | CCCCCn1c(N2CCN(c3cc(F)cc(F)c3)CC2)cc(=O)n2cc(-c3ccc(Cl)cc3)nc12 [Compound 245] | 10 to 100 nM | –
42 | CCCCCn1c(N2CCCCC2)cc(=O)n2cc(-c3ccc(Cl)cc3)nc12 [Compound 246] | 10 to 100 nM | –
43 | CCCCCn1c(N2CCCCCC2)cc(=O)n2cc(-c3ccc(Cl)cc3)nc12 [Compound 247] | 10 to 100 nM | –
44 | CCCCCn1c(NC)cc(=O)n2cc(-c3ccc(Cl)cc3)nc12 [Compound 248] | 10 to 100 nM | –
45 | CCCCCn1c(NCc2ccc3c(c2)OCO3)cc(=O)n2cc(-c3ccc(Cl)cc3)nc12 [Compound 249] | 10 to 100 nM | –
46 | CCCCCn1c(NCCOC)cc(=O)n2cc(-c3ccc(Cl)cc3)nc12 [Compound 250] | 10 to 100 nM | –
47 | CCCCCn1c(NCCc2ccccc2)cc(=O)n2cc(-c3ccc(Cl)cc3)nc12 [Compound 251] | 10 to 100 nM | –
48 | CCCCCn1c(NC2C[C@@H]3CC[C@H]2C3)cc(=O)n2cc(-c3ccc(Cl)cc3)nc12 (stereo partly drawn) [Compound 252] | – | 10 to 100 nM
49 | CCCCCn1c(N(CCO)CCO)cc(=O)n2cc(-c3ccc(Cl)cc3)nc12 [Compound 253] | 10 to 100 nM | –
50 | CCCCCn1c(N2CCNCC2)cc(=O)n2cc(-c3ccc(Cl)cc3)nc12 [Compound 254] | < 10 nM | –
51 | CCCCCn1c(N2C(C)CCC2C)cc(=O)n2cc(-c3ccc(Cl)cc3)nc12 (stereo not drawn) [Compound 255] | < 10 nM | –
52 | CCCCCn1c(N2CCC[C@H]2C)cc(=O)n2cc(-c3ccc(Cl)cc3)nc12 [Compound 256] | < 10 nM | –
53 | CCCCCn1c(N2CCC(C)C2)cc(=O)n2cc(-c3ccc(Cl)cc3)nc12 (stereo not drawn) [Compound 257] | < 10 nM | –
54 | CCCCCn1c(N2CCC[C@@H]2C)cc(=O)n2cc(-c3ccc(Cl)cc3)nc12 [Compound 258] | 10 to 100 nM | –
55 | CCCCCn1c(N2CCCC2C)cc(=O)n2cc(-c3ccc(Cl)cc3)nc12 (stereo not drawn) [Compound 259] | 10 to 100 nM | –
56 | CCCCCn1c(OC2CCCC2)cc(=O)n2cc(-c3ccc(Cl)cc3)nc12 [Compound 260] | 10 to 100 nM | –
57 | CCCCCn1c(OC(C)c2ccccc2)cc(=O)n2cc(-c3ccc(Cl)cc3)nc12 (stereo not drawn) [Compound 261] | 100 to 1000 nM | –
58 | CCCCCn1c(OC(CC(C)C)CC(C)C)cc(=O)n2cc(-c3ccc(Cl)cc3)nc12 [Compound 262] | 100 to 1000 nM | –
59 | CCCCCCCCOc1cc(=O)n2cc(-c3ccc(Cl)cc3)nc2n1CCCCC [Compound 263] | 100 to 1000 nM | –
60 | CCCCCn1c(Oc2cccnc2)cc(=O)n2cc(-c3ccc(Cl)cc3)nc12 [Compound 264] | 100 to 1000 nM | –
